Experimental data published in article PMC7175367, “1H-Imidazole-2,5-Dicarboxamides as NS4A Peptidomimetics: Identification of a New Approach to Inhibit HCV-NS3 Protease” (Biomolecules, 2020).
“And” between values parts separate entries of the source, which are not always exact repeats. Equal entries are not always repeated. “Also recorded” adds a separate entry of the source.

Tests used:
NS3 domain = molecular target: T1, NS3 domain (Hepatitis C virus genotype 4a, UniProt O39929); assay: Differential static light scattering (DSLS) binding test; parameters: species or system HCV genotype 4a; conditions: NS3 domain 15.0 µM with equimolar compound; for ΔTagg (liganded protein − free protein): 25.0 to 85.0 °C, n = 3; for ΔTagg as % of the positive control NS4A21`–33`: relative to NS4A21`–33`
T1 construct: NS3 protease domain 1–181 aa plus an N-terminal T7 tag and C-terminal His tag; made in house; host or cells: E. coli Rosetta (DE3) pLysS, vector pET-3a
Procedure: We studied the binding of MOC compounds with NS3 by differential static light scattering (DSLS). The NS3 domain stability upon binding to NS4A was measured by monitoring denatured protein aggregation upon increasing the temperature gradually from 25.0 to 85.0 °C (0.5 °C increments) at 600 nm. If a ligand binds to the protein, this increases a protein’s aggregation temperature (Tagg). DSLS provides an advantage of being a label-free binding assay technique and ΔTagg (of liganded protein−free protein) can be used to assess relative binding affinities of ligands. For NS3, the ΔTagg values that occurred upon binding of the MOC compounds were measured and compared to that of NS4A21`–33` as a positive control.
We studied the binding of NS4A and its mutants with NS3 by DSLS using Stargazer-2™ (Harbinger Biotechnology and Engineering Corporation, Toronto, Canada). This method assesses protein stability by monitoring aggregate formation using controlled, gradually elevated temperatures. The NS3 domain stability upon binding to NS4A was measured by monitoring denatured protein aggregation upon increasing the temperature from 25.0 to 85.0 °C (0.5 °C increments) at 600 nm. The Tagg values were calculated automatically from raw data using Stargazer-AIR® software. All experiments were repeated three times using the same batch of NS3 protein.
The NS3 domain (15.0 µM), alone or mixed with an equimolar equivalent of tested MOC derivative, was added to a binding buffer (20.0 mM HEPES, 10.0 mM DTT, 200 mM NaCl, pH 7.60) to a final volume 100 µL. The mixture was incubated at room temperature with gentle shaking for 2 h. Afterwards, 10 µL of the mixture was transferred into a clear bottomed Nunc 384-well plate and covered by 10 µL paraffin oil to minimize evaporation. Protein aggregation was monitored by tracking the change in scattered light that was detected by a charged coupled device (CCD) camera. Snapshot images of the plate were taken every 0.5 °C. The pixel intensities in a preselected region of each well were integrated using image analysis software to generate a value representative of the total amount of scattered light in that region. These intensities were then plotted against temperature for each sample well and fitted to obtain the aggregation temperature (Tagg). Aggregation was monitored and analyzed to assess the effect of NS4A and its synthetic analogues on the stability of the NS3 as an indicator of binding. Each experiment was repeated three times. Statistical analysis was performed using GraphPad Prism v. 8.0® and Instat® v. 3.10 software.

[1] = molecular target: T2, NS3 (NS4A21`–33` binding site) (Hepatitis C virus genotype 4a, UniProt O39929); assay: Fluorescence anisotropy (FA) competition assay with FITC-NS4A21`–33`; parameters: species or system HCV genotype 4a; conditions: displacement of FITC-NS4A21`–33` (0.10 µM) from NS3, 480/520 nm, compounds 150 to 0.292 µM; for IC50: Competition IC50 ± SEM
T2 construct: NS3 protease domain 1–181 aa plus an N-terminal T7 tag and C-terminal His tag; made in house; host or cells: E. coli Rosetta (DE3) pLysS, vector pET-3a
Procedure: This assay measures the potency by which synthetic peptidomimetics affect the binding of labeled NS4A21`–33`. Before testing the MOC compounds, the binding affinity of fluorescein isothiocyanate NS4A21`–33` (FITC-NS4A21`–33`) was first determined (see Supplementary Material Figure S3) based on our previous work. For this particular protein batch, the optimal ratio to be used in the FA affinity test was calculated to be 0.5 µM NS3 and 0.1 µM FITC-NS4A21`–33`. Compounds that efficiently compete with NS4A21`–33` are expected to decrease the fluorescence emitted from NS3/FITC-4A21-34` mixture.
In a 96-well plate, we added a place binding buffer (20 mM HEPES, 10 mM DTT, 200 mM NaCl, pH 7.60) and a mixture of NS3 ([…]) and FITC-NS4A (0.10 µM) at the calculated affinity constant concentration. A serial dilution of MOC compounds (dissolved in 1.50% DMSO in binding buffer) (1/2 dilution starting from 150 to 0.292 µM) were mixed gently for 60 min in a dark place and the fluorescence was measured at excitation/emission wavelengths of 480/520 nm. The competition IC50 was calculated according to the recommended equation embedded in GraphPad Prism v. 8.0® and Instat® software.

[2] = molecular target: HCV NS3 protease domain, genotype 4a (1-181 aa, N-terminal T7 tag, C-terminal His tag) (hepatitis C virus genotype 4a)
NS3 protease = molecular target: T3, NS3 protease (Hepatitis C virus genotype 4a, UniProt O39929); assay: Enzyme inhibition assay (SensoLyte 520 HCV Protease Assay Kit, modified); assay type: biochemical, HCV genotype 4a
T3 construct: NS3 protease domain 1–181 aa plus an N-terminal T7 tag and C-terminal His tag; made in house; host or cells: E. coli Rosetta (DE3) pLysS, vector pET-3a
Procedure: MOC-24 was selected for a qualitative testing for its inhibition of NS3 protease activity. Experiments were carried out using the SensoLyte® 520 HCV Protease Assay Kit. This assay measures the recovered fluorescence emitted upon cleavage of the labeled peptide substrate representing the NS4A/NS4B junction. Considering that NS3 without NS4A is almost a thousand-times less catalytic, the method was modified to suit the purpose of our allosteric inhibition assay. […] As a positive control, an equimolar mixture of NS4A with NS3 (equimolar, 2.00 µM each) caused only a 9-fold increase in the catalytic activity of the enzyme (Figure 5), which was far less than the reported value, possibly due to the large amount of protein used.
The assay was performed using SensoLyte-520® HCV protease assay kit fluorometric* (Anaspec, Fremont, CA, USA) according to a modified procedure to suit the purpose of determination of allosteric inhibition. NS3 (2.00 µM) was mixed with MOC-24 (4.00 µM) for 15.0 min. Afterwards, 5-FAM/QXL™520 fluorescence resonance energy transfer (FRET) peptide was added as instructed by the assay kit manual. […] In the FRET peptide, the fluorescence of 5-FAM is quenched by QXL™520. Upon cleavage into two separate fragments by HCV NS3/4A protease, the fluorescence of 5-FAM is recovered, and can be monitored at 490 nm/520 nm (excitation/emission). […]

| Molecule | ΔTagg (liganded protein − free protein) (NS3 domain) | IC50 [1] | melting point [°C] | further results |
| --- | --- | --- | --- | --- |
| CCCCCCNC(=O)c1ncc(C(=O)NCc2ccccn2)[nH]1 [MOC-33, N^2-(n-Hexyl)-N^5-(pyridin-2-ylmethyl)-1H-imidazole-2,5-dicarboxamide] | much weaker binding | 40.3 ± 24 µM | – | Competition IC50 ± SEM [1]: much weaker binding |
| CC(C)OCCCCNC(=O)c1ncc(C(=O)NCCCCNC(=N)N)[nH]1 [MOC-30, N^5-(4-Guanidinobutyl)-N^2-(4-isopropoxybutyl)-1H-imidazole-2,5-dicarboxamide] | – | 28.5 ± 8.55 µM | – | – |
| CCC(C)CCNC(=O)c1ncc(C(=O)NCCCCNC(=N)N)[nH]1 (centres unmarked) [MOC-32, N^5-(4-guanidinobutyl)-N^2-(3-methylpentyl)-1H-imidazole-2,5-dicarboxamide] | – | 7.7 µM and 7.74 µM | – | – |
| NS4A_(21`–33`) peptide, LL-G21…33-LL | – | – | – | NS3 protease activity (SensoLyte 520 HCV protease assay, 5-FAM/QXL520 FRET peptide); NS3 2.00 µM with NS4A 2.00 µM against NS3 alone [2]: 9 fold |
| CC(C)CCCCCNC(=O)c1ncc(C(=O)NCCCCNC(=N)N)[nH]1 [MOC-31, N^5-(4-Guanidinobutyl)-N^2-(6-methylheptyl)-1H-imidazole-2,5-dicarboxamide] | – | 12.1 ± 1.69 µM | 83 to 84 | – |
| N=C(N)NCCCCNC(=O)c1cnc(C(=O)NCCCOC2CCCCC2)[nH]1 [MOC-27, N^2-(3-(Cyclohexyloxy)propyl)-N^5-(4-guanidinobutyl)-1H-imidazole-2,5-dicarboxamide] | – | > 100 µM | – | – |
| N=C(N)NCCCCNC(=O)c1cnc(C(=O)NCCOC2CCCCC2)[nH]1 [MOC-26, N^2-(2-(Cyclohexyloxy)ethyl)-N^5-(4-guanidinobutyl)-1H-imidazole-2,5-dicarboxamide] | – | > 100 µM | – | – |
| LL-G21SVVIVGRIVLSG33-LL [NS4A] | – | – | – | fold increase in the catalytic activity of the enzyme (NS3 protease; positive control, NS4A equimolar with NS3, 2.00 µM each): 9 fold |
| CCCCCNC(=O)c1ncc(C(=O)NCC(=O)NC)[nH]1 [MOC-11, N^5-(2-(Methylamino)-2-oxoethyl)-N^2-(n-pentyl)-1H-imidazole-2,5-dicarboxamide] | 0.82 °C | 17.3 ± 1.22 µM | 87 | ΔTagg as % of the positive control NS4A21`–33` (NS3 domain): 54.6% |
| CCCCCNC(=O)c1ncc(C(=O)NCCCCNC(=N)N)[nH]1 [MOC-23, N^5-(4-Guanidinobutyl)-N^2-(n-pentyl)-1H-imidazole-2,5-dicarboxamide] | 0.32 °C | 4.7 ± 0.327 µM | – | ΔTagg as % of the positive control NS4A21`–33` (NS3 domain): 19.5% |
| N=C(N)NCCCCNC(=O)c1cnc(C(=O)NCCCOc2ccccc2)[nH]1 [MOC-29, N^5-(4-Guanidinobutyl)-N^2-(3-phenoxypropyl)-1H-imidazole-2,5-dicarboxamide] | – | > 100 µM | 135 to 138 | – |
| CCCCCCNC(=O)c1ncc(C(=O)NCCCCNC(=N)N)[nH]1 [MOC-24, N^5-(4-Guanidinobutyl)-N^2-(n-hexyl)-1H-imidazole-2,5-dicarboxamide] | 0.60 °C | 1.9 µM and 1.91 µM | – | ΔTagg as % of the positive control NS4A21`–33` (NS3 domain): 39.8% and 40%; NS3 catalytic activity (NS3 protease; qualitative, NS3 2.00 µM, MOC-24 4.00 µM, 5-FAM/QXL520 FRET peptide): inhibited NS3 protease activity; also recorded: complete loss of NS3 catalytic activity |
| N=C(N)NCCCCNC(=O)c1cnc(C(=O)NCCOc2ccccc2)[nH]1 [MOC-28, N^5-(4-Guanidinobutyl)-N^2-(2-phenoxyethyl)-1H-imidazole-2,5-dicarboxamide] | – | > 100 µM | 137 to 139 | – |
